Measurements: US10538487B2, “Sulfonylureas and related compounds and use of same” (priority 2015, dated 2020)
Where two headings read alike, the source gives them in different places.

Experiment: Single dose pharmacokinetic study in mice (iv 4 mg/Kg, po 20 mg/Kg), plasma concentration post-dosing
Type: in vivo, mouse
Conditions: male, C57BL/6, mouse, plasma, mouse; for concentration at 5 min: 5 min post dosing; for concentration at 0.25 h: 0.250 h post dosing; for concentration at 0.5 h: 0.500 h post dosing; for concentration at 1 h: 1.00 h post dosing; for concentration at 2 h: 2.00 h post dosing; for concentration at 4 h: 4.00 h post dosing; for concentration at 8 h: 8.00 h post dosing; for concentration at 24 h: 24.0 h post dosing
Experimental: This is advantageous leading to comparatively lower doses or less frequent administration. The procedure followed was: Male C57BL/6 mice were used at 7-9 weeks age with 3 animals per group. Mice were dosed with test compound using single intravenous bolus or oral gavage. Blood samples were taken via submandibular or saphenous vein for analysis of plasma concentrations of compound by LC-MS/MS at the following timepoints: IV (3 mice): 0.083, 0.25, 0.5, 1, 2, 4, 8 and 24 hours post dosing, PO (3 mice): 0.25, 0.5, 1, 2, 4, 8 and 24 hours post dosing. LC-MS/MS method for the quantitative determination of test compound in corresponding biological matrix was developed. […] The results are shown graphically in FIGS. 1A to 1C (MCC950) and FIGS. 2A to 2C (MCC7840).

CC(C)n1ccc(S(=O)(=O)NC(=O)Nc2c3c(cc4c2CCC4)CCC3)n1 [MCC_007840_002]
concentration at 5 min (iv, 4 mg/kg, IV 4 mg/Kg, individual mice M1-M3, read-out: Plasma concentration, IV Time 0.0833 h): 47800 ng/mL | concentration at 5 min (iv, 4 mg/kg, IV 4 mg/Kg, mean of 3 mice, read-out: Plasma concentration, IV Time 0.0833 h, Mean IV): 42800 ng/mL | concentration at 0.25 h (iv, 4 mg/kg, IV 4 mg/Kg, individual mice M1-M3, read-out: Plasma concentration, IV Time 0.250 h): 28100 ng/mL | concentration at 0.25 h (iv, 4 mg/kg, IV 4 mg/Kg, mean of 3 mice, read-out: Plasma concentration, IV Time 0.250 h, Mean IV): 28900 ng/mL | concentration at 0.5 h (iv, 4 mg/kg, IV 4 mg/Kg, individual mice M1-M3, read-out: Plasma concentration, IV Time 0.500 h): 25200 ng/mL | concentration at 0.5 h (iv, 4 mg/kg, IV 4 mg/Kg, mean of 3 mice, read-out: Plasma concentration, IV Time 0.500 h, Mean IV): 25000 ng/mL | concentration at 1 h (iv, 4 mg/kg, IV 4 mg/Kg, individual mice M1-M3, read-out: Plasma concentration, IV Time 1.00 h): 19900 ng/mL | concentration at 1 h (iv, 4 mg/kg, IV 4 mg/Kg, mean of 3 mice, read-out: Plasma concentration, IV Time 1.00 h, Mean IV): 18700 ng/mL | concentration at 2 h (iv, 4 mg/kg, IV 4 mg/Kg, individual mice M1-M3, read-out: Plasma concentration, IV Time 2.00 h): 13300 ng/mL | concentration at 2 h (iv, 4 mg/kg, IV 4 mg/Kg, mean of 3 mice, read-out: Plasma concentration, IV Time 2.00 h, Mean IV): 16000 ng/mL | concentration at 4 h (iv, 4 mg/kg, IV 4 mg/Kg, individual mice M1-M3, read-out: Plasma concentration, IV Time 4.00 h): 6520 ng/mL | concentration at 4 h (iv, 4 mg/kg, IV 4 mg/Kg, mean of 3 mice, read-out: Plasma concentration, IV Time 4.00 h, Mean IV): 7890 ng/mL | concentration at 8 h (iv, 4 mg/kg, IV 4 mg/Kg, individual mice M1-M3, read-out: Plasma concentration, IV Time 8.00 h): 3490 ng/mL | concentration at 8 h (iv, 4 mg/kg, IV 4 mg/Kg, mean of 3 mice, read-out: Plasma concentration, IV Time 8.00 h, Mean IV): 3760 ng/mL | concentration at 24 h (iv, 4 mg/kg, IV 4 mg/Kg, individual mice M1-M3, read-out: Plasma concentration, IV Time 24.0 h): 149 ng/mL | concentration at 24 h (iv, 4 mg/kg, IV 4 mg/Kg, mean of 3 mice, read-out: Plasma concentration, IV Time 24.0 h, Mean IV): 134 ng/mL | AUC0-inf (iv, 4 mg/kg, IV 4 mg/Kg, individual mice M1-M3, read-out: AUC0-inf): 101 µg·h/mL | AUC(0-t) (iv, 4 mg/kg, IV 4 mg/Kg, individual mice M1-M3, read-out: AUC0-last): 100 µg·h/mL | C0 (iv, 4 mg/kg, IV 4 mg/Kg, individual mice M1-M3, read-out: C0): 62300 ng/mL | clearance (iv, 4 mg/kg, IV 4 mg/Kg, individual mice M1-M3, read-out: Cl): 0.659 mL/min/kg | MRT inf (iv, 4 mg/kg, IV 4 mg/Kg, individual mice M1-M3, read-out: MRT0-inf): 4.3 h | MRT last (iv, 4 mg/kg, IV 4 mg/Kg, individual mice M1-M3, read-out: MRT0-last): 4.11 h | half-life (iv, 4 mg/kg, IV 4 mg/Kg, individual mice M1-M3, read-out: T1/2 (converted)): 3.62 h | Vd (iv, 4 mg/kg, IV 4 mg/Kg, individual mice M1-M3, read-out: Vdss): 0.17 L/kg | AUC0-inf (iv, 4 mg/kg, IV 4 mg/Kg, mean of 3 mice, read-out: AUC0-inf, Mean IV): 108 µg·h/mL | AUC(0-t) (iv, 4 mg/kg, IV 4 mg/Kg, mean of 3 mice, read-out: AUC0-last, Mean IV): 107 µg·h/mL | clearance (iv, 4 mg/kg, IV 4 mg/Kg, mean of 3 mice, read-out: Cl, Mean IV): 0.621 mL/min/kg | MRT inf (iv, 4 mg/kg, IV 4 mg/Kg, mean of 3 mice, read-out: MRT0-inf, Mean IV): 4.29 h | MRT last (iv, 4 mg/kg, IV 4 mg/Kg, mean of 3 mice, read-out: MRT0-last, Mean IV): 4.13 h | half-life (iv, 4 mg/kg, IV 4 mg/Kg, mean of 3 mice, read-out: T1/2, Mean IV (converted)): 3.39 h | Vd (iv, 4 mg/kg, IV 4 mg/Kg, mean of 3 mice, read-out: Vdss, Mean IV): 0.16 L/kg | concentration at 0.25 h (po, 20 mg/kg, PO 20 mg/Kg, mean of 3 mice, read-out: Plasma concentration, PO Time 0.250 h, Mean PO): 60500 ng/mL | concentration at 0.5 h (po, 20 mg/kg, PO 20 mg/Kg, mean of 3 mice, read-out: Plasma concentration, PO Time 0.500 h, Mean PO): 50300 ng/mL | concentration at 1 h (po, 20 mg/kg, PO 20 mg/Kg, mean of 3 mice, read-out: Plasma concentration, PO Time 1.00 h, Mean PO): 42300 ng/mL | concentration at 2 h (po, 20 mg/kg, PO 20 mg/Kg, mean of 3 mice, read-out: Plasma concentration, PO Time 2.00 h, Mean PO): 42600 ng/mL | concentration at 4 h (po, 20 mg/kg, PO 20 mg/Kg, mean of 3 mice, read-out: Plasma concentration, PO Time 4.00 h, Mean PO): 26600 ng/mL | concentration at 8 h (po, 20 mg/kg, PO 20 mg/Kg, mean of 3 mice, read-out: Plasma concentration, PO Time 8.00 h, Mean PO): 18900 ng/mL | concentration at 24 h (po, 20 mg/kg, PO 20 mg/Kg, mean of 3 mice, read-out: Plasma concentration, PO Time 24.0 h, Mean PO): 1470 ng/mL | AUC0-inf (po, 20 mg/kg, PO 20 mg/Kg, individual mice M4-M6, read-out: AUC0-inf): 368 µg·h/mL | MRT last (po, 20 mg/kg, PO 20 mg/Kg, individual mice M4-M6, read-out: MRT0-last): 4.8 h | Tmax (po, 20 mg/kg, PO 20 mg/Kg, individual mice M4-M6, read-out: Tmax): 0.25 h | AUC0-inf (po, 20 mg/kg, PO 20 mg/Kg, mean of 3 mice, read-out: AUC0-inf, Mean PO): 362 µg·h/mL | AUC(0-t) (po, 20 mg/kg, PO 20 mg/Kg, mean of 3 mice, read-out: AUC0-last, Mean PO): 350 µg·h/mL | Cmax (po, 20 mg/kg, PO 20 mg/Kg, mean of 3 mice, read-out: Cmax, Mean PO): 60500 ng/mL | MRT inf (po, 20 mg/kg, PO 20 mg/Kg, mean of 3 mice, read-out: MRT0-inf, Mean PO): 7.52 h
